Experimental data published in US8247211B2, “Glycopeptide antibiotics” (American Cyanamid Company, priority 2001, dated 2012).
≈ marks a conversion by molar mass, not a printed value. Numbered stars: 1 amine (or outer) side, 2 acyl side, 3 side chain; on linkers, the order of the positions; unused ones are H or OH. Square brackets hold non-standard residues; d marks the D form. Peptide text beside a SMILES is read from it. ξ: configuration not given here. X1 = N=C1NCC(C(O)C(N[*:1])C(=O)[*:2])N1C1OC(CO)C(O)C(O)C1O; ξEnduracididine(βξ-OH,4'ξ) = N=C1NCC(C(O)C(N)C(=O)O)N1; Cha = N[CH](CC1CCCCC1)C(=O)O

Columns and labels:
[1] = system: Enterococcus sp.; test: In vitro antibacterial evaluation: minimum inhibitory concentration (MIC), broth dilution method; type: cell-based; conditions: broth dilution, 18 hours at 35° C.
Summary of the method: (§1)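 MIC read as lowest drug level preventing visible growth. Organisms at 5×10^5 CFU/mL were exposed to a 64-0.06 μg/mL dilution series in Muller-Hinton II […] following NCCLS broth dilution standard M7-A2.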

[2] = system: Staphylococcus sp.; test: as above; type: cell-based; conditions: broth dilution, 18 hours at 35° C.; for MIC Staphylococcus aureus-SMITH (GC 4543): strain SMITH GC 4543
Summary of the method: as §1

[3] = system: Streptococcus sp.; test: as above; type: cell-based; conditions: broth dilution, 18 hours at 35° C.
Summary of the method: as §1

[4] = system: Staphylococcus aureus-SMITH (GC 4543); test: Acute lethal infection in mice (ED50); type: in vivo; conditions: female CD-1 mice, intraperitoneal challenge, intravenous dose 30 min. after infection, 7 day survival ratios
Summary of the method: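 Median effective dose is calculated from 7-day survival ratios pooled across three separate tests. Mice (female CD-1) receive an intraperitoneal bacterial challenge in broth or hog gastric mucin, then intravenous drug 30 min later, five animals per dose level.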

[5] = Anatomic pathology (heart and kidney histopathology) in mice; type: in vivo, CD-1 mice; conditions: 20 mg/kg intravenously daily for 9 days, microscopic histopathology on day 10
Summary of the method: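 Juvenile CD-1 mice (20 days old; 5 vehicle, 5 treated) received glycopeptide antibiotic 20 mg/kg i.v. daily for 9 days. Necropsied tissues formalin-fixed, paraffin-embedded, H&E stained and examined microscopically; findings graded slight to severe versus controls.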

[6] = system: Escherichia coli; test: In vitro antibacterial evaluation: minimum inhibitory concentration (MIC), broth dilution method; type: cell-based; conditions: broth dilution, 18 hours at 35° C.
[7] = Enterococcus faecalis (ATCC 29212)
[8] = Enterococcus faecalis (GC 2242)
[9] = Enterococcus faecalis (GC 2691)
[10] = Enterococcus faecalis (GC 3059)
[11] = Enterococcus faecalis (GC 4552)
[12] = Enterococcus faecalis (GC 4553)
[13] = Enterococcus faecalis (GC 4554)
[14] = Enterococcus faecalis (GC 6189)
[15] = Streptococcus agalactiae (GC 4564)
[16] = Streptococcus pneumoniae (ATCC 6301)
[17] = Streptococcus pneumoniae (GC 1894)
[18] = Streptococcus pneumoniae (GC 4565)
[19] = Streptococcus pyogenes (GC 4563)

## Cc1ccc(Oc2cccc(-c3nc4cc(CC5NC(=O)C(C(C)c6ccccc6)NC(=O)CNC(=O)C(CO)NC(=O)C(C(O)C6CNC(=N)N6C6OC(CO)C(O)C(O)C6O)NC(=O)C(C(O)C6CNC(=N)N6)NC5=O)ccc4o3)c2)cc1 (stereo not shown) [Example 28]
[1]; Enterococcus avium (GC 4558)
  MIC Enterococcus avium (GC 4558): 4 µg/mL (≈ 3.39 µM)
[1]; [7]
  MIC Enterococcus faecalis (ATCC 29212): 8 µg/mL (≈ 6.79 µM)
[1]; [8]
  MIC Enterococcus faecalis (GC 2242): 4 µg/mL (≈ 3.39 µM)
[1]; [9]
  MIC Enterococcus faecalis (GC 2691): 8 µg/mL (≈ 6.79 µM)
[1]; [10]
  MIC Enterococcus faecalis (GC 3059): 8 µg/mL (≈ 6.79 µM)
[1]; [11]
  MIC Enterococcus faecalis (GC 4552): 8 µg/mL (≈ 6.79 µM)
[1]; [12]
  MIC Enterococcus faecalis (GC 4553): 4 µg/mL (≈ 3.39 µM)
[1]; [13]
  MIC Enterococcus faecalis (GC 4554): 8 µg/mL (≈ 6.79 µM)
[1]; [14]
  MIC Enterococcus faecalis (GC 6189): 8 µg/mL (≈ 6.79 µM)
[1]; Enterococcus faecium (GC 2243)
  MIC Enterococcus faecium (GC 2243): 8 µg/mL (≈ 6.79 µM)
[1]; Enterococcus faecium (GC 4556)
  MIC Enterococcus faecium (GC 4556): 8 µg/mL (≈ 6.79 µM)
[1]; Enterococcus faecium (GC 4557)
  MIC Enterococcus faecium (GC 4557): 4 µg/mL (≈ 3.39 µM)
[1]
  MIC Enterococcus avium (GC 4558): 4 µg/mL (≈ 3.39 µM)
  MIC Enterococcus faecalis (ATCC 29212): 8 µg/mL (≈ 6.79 µM)
  MIC Enterococcus faecalis (GC 2242): 4 µg/mL (≈ 3.39 µM)
  MIC Enterococcus faecalis (GC 2691): 8 µg/mL (≈ 6.79 µM)
  MIC Enterococcus faecalis (GC 3059): 8 µg/mL (≈ 6.79 µM)
  MIC Enterococcus faecalis (GC 4552): 8 µg/mL (≈ 6.79 µM)
  MIC Enterococcus faecalis (GC 4553): 4 µg/mL (≈ 3.39 µM)
  MIC Enterococcus faecalis (GC 4554): 8 µg/mL (≈ 6.79 µM)
  MIC Enterococcus faecalis (GC 6189): 8 µg/mL (≈ 6.79 µM)
  MIC Enterococcus faecium (GC 2243): 8 µg/mL (≈ 6.79 µM)
  MIC Enterococcus faecium (GC 4556): 8 µg/mL (≈ 6.79 µM)
  MIC Enterococcus faecium (GC 4557): 4 µg/mL (≈ 3.39 µM)
[2]
  MIC Staphylococcus aureus-SMITH (GC 4543): 4 µg/mL (≈ 3.39 µM)
[3]; [15]
  MIC Streptococcus agalactiae (GC 4564): 4 µg/mL (≈ 3.39 µM)
[3]; [16]
  MIC Streptococcus pneumoniae (ATCC 6301): 4 µg/mL (≈ 3.39 µM)
[3]; [17]
  MIC Streptococcus pneumoniae (GC 1894): 4 µg/mL (≈ 3.39 µM)
[3]; [18]
  MIC Streptococcus pneumoniae (GC 4565): 4 µg/mL (≈ 3.39 µM)
[3]; [19]
  MIC Streptococcus pyogenes (GC 4563): 1 µg/mL (≈ 0.849 µM)
[3]
  MIC Streptococcus agalactiae (GC 4564): 4 µg/mL (≈ 3.39 µM)
  MIC Streptococcus pneumoniae (ATCC 6301): 4 µg/mL (≈ 3.39 µM)
  MIC Streptococcus pneumoniae (GC 1894): 4 µg/mL (≈ 3.39 µM)
  MIC Streptococcus pneumoniae (GC 4565): 4 µg/mL (≈ 3.39 µM)
  MIC Streptococcus pyogenes (GC 4563): 1 µg/mL (≈ 0.849 µM)
[4]
  median effective dose (ED50), Staphylococcus aureus-SMITH (GC 4543): 8 mg/kg
[5]
  Anatomical Pathology (Day 10), Heart: 0
  Anatomical Pathology (Day 10), Kidney: 0
[6]
  MIC Escherichia coli (ATCC 25922): 64 µg/mL (≈ 54.3 µM)
  MIC Escherichia coli (GC 4559): 64 µg/mL (≈ 54.3 µM)
  MIC Escherichia coli (GC 4560): 8 µg/mL (≈ 6.79 µM)

## N=C1NCC(C(O)C2NC(=O)C(CC3CCCCC3)NC(=O)C(CC3CCCCC3)NC(=O)CNC(=O)C(CO)NC(=O)C(C(O)C3CNC(=N)N3C3OC(CO)C(O)C(O)C3O)NC2=O)N1 (stereo not drawn) [Example 52, Cyclo[3-cyclohexylalanyl-3-cyclohexylalanyl-3-(2-iminoimidazolidin-4-yl)seryl-3-(3-hexopyranosyl-2-iminoimidazolidin-4-yl)serylserylglycyl]] (cyclo(G[Cha][Cha][ξEnduracididine(βξ-OH,4'ξ)][X1]S); configuration not given here)
[1]; Enterococcus avium (GC 4558)
  MIC Enterococcus avium (GC 4558): 32 µg/mL (≈ 33.6 µM)
[1]; [7]
  MIC Enterococcus faecalis (ATCC 29212): 64 µg/mL (≈ 67.2 µM)
[1]; [8]
  MIC Enterococcus faecalis (GC 2242): 32 µg/mL (≈ 33.6 µM)
[1]; [9]
  MIC Enterococcus faecalis (GC 2691): 32 µg/mL (≈ 33.6 µM)
[1]; [10]
  MIC Enterococcus faecalis (GC 3059): 32 µg/mL (≈ 33.6 µM)
[1]; [11]
  MIC Enterococcus faecalis (GC 4552): 32 µg/mL (≈ 33.6 µM)
[1]; [12]
  MIC Enterococcus faecalis (GC 4553): 16 µg/mL (≈ 16.8 µM)
[1]; [13]
  MIC Enterococcus faecalis (GC 4554): 64 µg/mL (≈ 67.2 µM)
[1]; [14]
  MIC Enterococcus faecalis (GC 6189): 32 µg/mL (≈ 33.6 µM)
[1]; Enterococcus faecium (GC 2243)
  MIC Enterococcus faecium (GC 2243): 16 µg/mL (≈ 16.8 µM)
[1]; Enterococcus faecium (GC 4556)
  MIC Enterococcus faecium (GC 4556): 32 µg/mL (≈ 33.6 µM)
[1]; Enterococcus faecium (GC 4557)
  MIC Enterococcus faecium (GC 4557): 8 µg/mL (≈ 8.39 µM)
[1]
  MIC Enterococcus avium (GC 4558): 32 µg/mL (≈ 33.6 µM)
  MIC Enterococcus faecalis (ATCC 29212): 64 µg/mL (≈ 67.2 µM)
  MIC Enterococcus faecalis (GC 2242): 32 µg/mL (≈ 33.6 µM)
  MIC Enterococcus faecalis (GC 2691): 32 µg/mL (≈ 33.6 µM)
  MIC Enterococcus faecalis (GC 3059): 32 µg/mL (≈ 33.6 µM)
  MIC Enterococcus faecalis (GC 4552): 32 µg/mL (≈ 33.6 µM)
  MIC Enterococcus faecalis (GC 4553): 16 µg/mL (≈ 16.8 µM)
  MIC Enterococcus faecalis (GC 4554): 64 µg/mL (≈ 67.2 µM)
  MIC Enterococcus faecalis (GC 6189): 32 µg/mL (≈ 33.6 µM)
  MIC Enterococcus faecium (GC 2243): 16 µg/mL (≈ 16.8 µM)
  MIC Enterococcus faecium (GC 4556): 32 µg/mL (≈ 33.6 µM)
  MIC Enterococcus faecium (GC 4557): 8 µg/mL (≈ 8.39 µM)
[2]
  MIC Coagulase Negative Staphylococcus (GC 4547): 8 µg/mL (≈ 8.39 µM)
  MIC Coagulase Negative Staphylococcus (GC 4548): 8 µg/mL (≈ 8.39 µM)
  MIC Coagulase Negative Staphylococcus (GC 4549): 4 µg/mL (≈ 4.2 µM)
  MIC Coagulase Negative Staphylococcus (GC 4551): 8 µg/mL (≈ 8.39 µM)
  MIC Staphylococcus aureus SMITH (GC 4543): 16 µg/mL (≈ 16.8 µM)
  MIC Staphylococcus haemolyticus (GC 4546): 4 µg/mL (≈ 4.2 µM)
  MIC Staphylococcus aureus-SMITH (GC 4543): 16 µg/mL (≈ 16.8 µM)
[3]; [15]
  MIC Streptococcus agalactiae (GC 4564): 8 µg/mL (≈ 8.39 µM)
[3]; [16]
  MIC Streptococcus pneumoniae (ATCC 6301): 8 µg/mL (≈ 8.39 µM)
[3]; [17]
  MIC Streptococcus pneumoniae (GC 1894): 8 µg/mL (≈ 8.39 µM)
[3]; [18]
  MIC Streptococcus pneumoniae (GC 4565): 16 µg/mL (≈ 16.8 µM)
[3]; [19]
  MIC Streptococcus pyogenes (GC 4563): 8 µg/mL (≈ 8.39 µM)
[3]
  MIC Streptococcus agalactiae (GC 4564): 8 µg/mL (≈ 8.39 µM)
  MIC Streptococcus pneumoniae (ATCC 6301): 8 µg/mL (≈ 8.39 µM)
  MIC Streptococcus pneumoniae (GC 1894): 8 µg/mL (≈ 8.39 µM)
  MIC Streptococcus pneumoniae (GC 4565): 16 µg/mL (≈ 16.8 µM)
  MIC Streptococcus pyogenes (GC 4563): 8 µg/mL (≈ 8.39 µM)
[4]
  median effective dose (ED50), Staphylococcus aureus-SMITH (GC 4543): >4
[5]
  Anatomical Pathology (Day 10), Heart: 0
  Anatomical Pathology (Day 10), Kidney: +++
[6]
  MIC Escherichia coli (ATCC 25922): 64 µg/mL (≈ 67.2 µM)
  MIC Escherichia coli (GC 4559): 64 µg/mL (≈ 67.2 µM)
  MIC Escherichia coli (GC 4560): 16 µg/mL (≈ 16.8 µM)
